Test results: patent US7879862B2, “Pyrazolo[1,5-alpha]pyrimidinyl derivatives useful as corticotropin-releasing factor (CRF) receptor antagonists” (SmithKline Beecham (Cork) Limited, priority 2004, dated 2011)
pKi: −log10 of the molar value.

What follows are compounds tested against T1, human CRF receptors (Homo sapiens, UniProt P34998) (assay: CRF receptor binding activity (radioligand displacement, Example 25)). Conditions: not given.
T1 construct: expressed in transfected cells
T1 sequence (P34998 24-415): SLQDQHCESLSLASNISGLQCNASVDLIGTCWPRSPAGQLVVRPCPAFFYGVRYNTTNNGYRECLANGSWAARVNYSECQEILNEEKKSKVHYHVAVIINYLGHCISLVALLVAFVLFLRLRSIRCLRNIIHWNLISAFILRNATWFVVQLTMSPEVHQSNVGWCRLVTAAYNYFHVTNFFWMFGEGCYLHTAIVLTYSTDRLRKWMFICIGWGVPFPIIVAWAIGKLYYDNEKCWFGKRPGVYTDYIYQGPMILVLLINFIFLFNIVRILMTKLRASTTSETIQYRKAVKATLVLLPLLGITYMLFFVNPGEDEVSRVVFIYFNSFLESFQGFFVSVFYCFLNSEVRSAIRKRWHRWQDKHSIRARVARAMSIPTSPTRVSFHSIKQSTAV
Text: The effectiveness of a compound as a CRF receptor antagonist may be determined by various assay methods. […] CRF receptor affinity may be determined by binding studies that measure the ability of a compound to inhibit the binding of a radiolabeled CRF (e.g., [^125I]tyrosine-CFR) to its receptor (e.g., receptors prepared from rat cerebral cortex membranes). The radioligand binding assay described by DeSouza et al. (supra, 1987) provides an assay for determining a compound's affinity for the CRF receptor.
[formula] where L=radioligand and KD=affinity of radioligand for receptor (Cheng and Prusoff, Biochem. Pharmacol. 22:3099, 1973).
By utilizing radiolabeled CRF ligands, the assay may be used to evaluate the binding activity of the compounds of the present invention with any CRF receptor subtype.
Briefly, the binding assay involves the displacement of a radiolabeled CRF ligand from the CRF receptor. More specifically, the binding assay is performed in 96-well assay plates using 1-10 μg cell membranes from cells stably transfected with human CRF receptors. […] The mixture is incubated for 2 hours at 22° C. followed by separation of the bound and free radioligand by rapid filtration over glass fiber filters. Following three washes, the filters are dried and radioactivity (Auger electrons from ^125I) is counted using a scintillation counter. All radioligand binding data may be analyzed using the non-linear least-squares curve-fitting programs Prism (GraphPad Software Inc) or XLfit (ID Business Solutions Ltd).

Row | SMILES | pKi
1 | CCN(Cc1nc(C)no1)c1cc(C)nc2c(-c3ccc(OC)cc3C)c(C)nn12 [Example 20-1, Ethyl-[3-(4-methoxy-2-methyl-phenyl)-2,5-dimethyl-pyrazolo[1,5-a]pyrimidin-7-yl]-(3-methyl-[1,2,4]oxadiazol-5-ylmethyl)-amine] | > 7.00
2 | CCC(Nc1cc(C)nc2c(-c3ccc(OC)cc3C)c(C)nn12)c1nnc(C)o1 (stereo not shown) [Example 22-1, [3-(4-Methoxy-2-methyl-phenyl)-2,5-dimethyl-pyrazolo[1,5-a]pyrimidin-7-yl]-[1-(5-methyl-[1,3,4]oxadiazol-2-yl)-propyl]-amine] | > 7.00
3 | COc1ccc(-c2c(C)nn3c(NC(C)Cc4nc(C)no4)cc(C)nc23)c(C)c1 (stereo not shown) [Example 12-1, [3-(4-Methoxy-2-methyl-phenyl)-2,5-dimethyl-pyrazolo[1,5-a]pyrimidin-7-yl]-[1-methyl-2-(3-methyl-[1,2,4]oxadiazol-5-yl)-ethyl]-amine] | > 7.00

Same assay, conditions: displacement of [125I] tyrosine-sauvagine from membranes of cells stably transfected with human CRF receptors; less than 0.10 μM (i.e., 100 nM); read-out: Ki (CRF receptor binding affinity)

Row | SMILES | pKi
4 | CCC[C@H](Nc1cc(C)nc2c(-c3ccc(OC)cc3C)c(C)nn12)c1nc(C)no1 [Example 13-1, [3-(4-Methoxy-2-methyl-phenyl)-2,5-dimethyl-pyrazolo[1,5-a]pyrimidin-7-yl]-[(S)-1-(3-methyl-[1,2,4]oxadiazol-5-yl)-butyl]-amine] | > 7.00
5 | CC[C@@H](Cc1noc(C)n1)Nc1cc(C)nc2c(-c3ccc(OC)cc3C)c(C)nn12 [Example 17-2, [3-(4-Methoxy-2-methyl-phenyl)-2,5-dimethyl-pyrazolo[1,5-a]pyrimidin-7-yl]-[(S)-1-(5-methyl-[1,2,4]oxadiazol-3-ylmethyl)-propyl]-amine] | > 7.00
6 | COc1ccc(-c2c(C)nn3c(N[C@H](C)Cc4nc(C(F)(F)F)no4)cc(C)nc23)c(OC)c1 [Example 13-7, [3-(2,4-Dimethoxy-phenyl)-2,5-dimethyl-pyrazolo[1,5-a]pyrimidin-7-yl]-[(R)-1-methyl-2-(3-trifluoromethyl-[1,2,4]oxadiazol-5-yl)-ethyl]-amine] | > 7.00
7 | COc1ccc(-c2c(C)nn3c(N[C@H](C)Cc4nc(C(F)(F)F)no4)cc(C)nc23)c(Cl)c1 [Example 13-6, [3-(2-Chloro-4-methoxy-phenyl)-2,5-dimethyl-pyrazolo[1,5-a]pyrimidin-7-yl]-[(R)-1-methyl-2-(3-trifluoromethyl-[1,2,4]oxadiazol-5-yl)-ethyl]-amine] | > 7.00
8 | CCCC(Nc1cc(C)nc2c(-c3ccc(OC)cc3C)c(C)nn12)c1nc(C)no1 (stereo not shown) [Example 11-5, [3-(4-Methoxy-2-methyl-phenyl)-2,5-dimethyl-pyrazolo[1,5-a]pyrimidin-7-yl]-[1-(3-methyl-[1,2,4]oxadiazol-5-yl)-butyl]-amine] | > 7.00
9 | COc1ccc(-c2c(C)nn3c(N4CCCCC4Cc4nc(C)no4)cc(C)nc23)c(C)c1 (stereo not shown) [Example 20-2, 3-(4-Methoxy-2-methyl-phenyl)-2,5-dimethyl-7-[2-(3-methyl-[1,2,4]oxadiazol-5-ylmethyl)-piperidin-1-yl]-pyrazolo[1,5-a]pyrimidine] | > 7.00
10 | COc1ccc(-c2c(C)nn3c(N[C@H](C)Cc4noc(C5CC5)n4)cc(C)nc23)c(C)c1 [Example 18-1, [(R)-2-(5-Cyclopropyl-[1,2,4]oxadiazol-3-yl)-1-methyl-ethyl]-[3-(4-methoxy-2-methyl-phenyl)-2,5-dimethyl-pyrazolo[1,5-a]pyrimidin-7-yl]-amine] | > 7.00
11 | COc1ccc(-c2c(C)nn3c(N[C@H](C)Cc4nc(C(F)(F)F)no4)cc(C)nc23)c(C)c1 [Example 13-5, [3-(4-Methoxy-2-methyl-phenyl)-2,5-dimethyl-pyrazolo[1,5-a]pyrimidin-7-yl]-[(R)-1-methyl-2-(3-trifluoromethyl-[1,2,4]oxadiazol-5-yl)-ethyl]-amine] | > 7.00
12 | CCC(Nc1cc(C)nc2c(-c3ccc(OC)cc3Cl)c(C)nn12)c1nc(C)no1 (stereo not shown) [Example 24-1, [3-(2-Chloro-4-methoxy-phenyl)-2,5-dimethyl-pyrazolo[1,5-a]pyrimidin-7-yl]-[1-(3-methyl-[1,2,4]oxadiazol-5-yl)-propyl]-amine] | > 7.00
13 | CC[C@H](Cc1noc(C)n1)Nc1cc(C)nc2c(-c3ccc(OC)cc3C)c(C)nn12 [Example 17-3, [3-(4-Methoxy-2-methyl-phenyl)-2,5-dimethyl-pyrazolo[1,5-a]pyrimidin-7-yl]-[(R)-1-(5-methyl-[1,2,4]oxadiazol-3-ylmethyl)-propyl]-amine] | > 7.00
14 | CCC(Nc1cc(C)nc2c(-c3ccc(C)cc3Cl)c(C)nn12)c1nc(C)no1 (stereo not shown) [Example 24-6, [3-(2-Chloro-4-methyl-phenyl)-2,5-dimethyl-pyrazolo[1,5-a]pyrimidin-7-yl]-[1-(3-methyl-[1,2,4]oxadiazol-5-yl)-propyl]-amine] | > 7.00
15 | CCC(Nc1cc(C)nc2c(-c3ccc(Cl)cc3C)c(C)nn12)c1nc(C)no1 (stereo not shown) [Example 24-4, [3-(4-Chloro-2-methyl-phenyl)-2,5-dimethyl-pyrazolo[1,5-a]pyrimidin-7-yl]-[1-(3-methyl-[1,2,4]oxadiazol-5-yl)-propyl]-amine] | > 7.00
16 | COc1ccc(-c2c(C)nn3c(NC(C)Cc4nc(C5CC5)no4)cc(C)nc23)c(C)c1 (stereo not shown) [Example 12-4, [2-(3-Cyclopropyl-[1,2,4]oxadiazol-5-yl)-1-methyl-ethyl]-[3-(4-methoxy-2-methyl-phenyl)-2,5-dimethyl-pyrazolo[1,5-a]pyrimidin-7-yl]-amine] | > 7.00
17 | Cc1cc(N[C@H](CC(C)C)c2nc(C)no2)n2nc(C)c(-c3cnc(N(C)C)cc3C)c2n1 [Example 11-18, [3-(6-Dimethylamino-4-methyl-pyridin-3-yl)-2,5-dimethyl-pyrazolo[1,5-a]pyrimidin-7-yl]-[3-methyl-(R)-1-(3-methyl-[1,2,4]oxadiazol-5-yl)-butyl]-amine] | > 7.00
18 | CC[C@H](Nc1cc(C)nc2c(-c3ccc(OC)cc3Cl)c(C)nn12)c1nc(C)no1 [Example 14-4, [3-(2-Chloro-4-methoxy-phenyl)-2,5-dimethyl-pyrazolo[1,5-a]pyrimidin-7-yl]-[(S)-1-(3-methyl-[1,2,4]oxadiazol-5-yl)-propyl]-amine] | > 7.00
19 | CCC(Nc1cc(C)nc2c(-c3ccc(OC)cc3C)c(C)nn12)c1nc(C(F)(F)F)no1 (stereo not shown) [Example 11-11, [3-(4-Methoxy-2-methyl-phenyl)-2,5-dimethyl-pyrazolo[1,5-a]pyrimidin-7-yl]-[1-(3-trifluoromethyl-[1,2,4]oxadiazol-5-yl)-propyl]-amine] | > 7.00
20 | CCC(Cc1nc(C)no1)Nc1cc(C)nc2c(-c3ccc(OC)cc3C)c(C)nn12 (stereo not shown) [Example 12-9, [3-(4-Methoxy-2-methyl-phenyl)-2,5-dimethyl-pyrazolo[1,5-a]pyrimidin-7-yl]-[1-(3-methyl-[1,2,4]oxadiazol-5-ylmethyl)-propyl]-amine] | > 7.00
21 | COc1ccc(-c2c(C)nn3c(N[C@@H](Cc4nc(C)no4)C(F)(F)F)cc(C)nc23)c(Cl)c1 [Example 13-4, [3-(2-Chloro-4-methoxy-phenyl)-2,5-dimethyl-pyrazolo[1,5-a]pyrimidin-7-yl]-[2,2,2-trifluoro-(S)-1-(3-methyl-[1,2,4]oxadiazol-5-ylmethyl)-ethyl]-amine] | > 7.00
22 | CCc1noc(C[C@@H](C)Nc2cc(C)nc3c(-c4ccc(OC)cc4C)c(C)nn23)n1 [Example 11-17, [2-(3-Ethyl-[1,2,4]oxadiazol-5-yl)-(R)-1-methyl-ethyl]-[3-(4-methoxy-2-methyl-phenyl)-2,5-dimethyl-pyrazolo[1,5-a]pyrimidin-7-yl]-amine] | > 7.00
